This is an account of results in patent US20240124491A1, “METHODS AND COMPOUNDS FOR TREATING FRIEDREICH'S ATAXIA” (Design Therapeutics, Inc., priority 2021, published 2024).

Each structure is given as a SMILES string.

This assay deals with human FXN. Briefly: EC50 assay: FXN mRNA expression by qRT-PCR in GM15850 cells after 48 hrs compound treatment. The class given is cell-based. The note with it: Homo sapiens, 48 hrs incubation, hFXN expression normalized to hGAPDH (qRT-PCR), read-out: EC50 WT (nM, 48 hr). The method in brief:
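FXN transcript, normalized to GAPDH by TaqMan qRT-PCR, read out after 48 hrs of compound on GM15850 cells plated at 150,000 per well. Dosing used five 3-fold steps from 150 nM final, vehicle 0.01% DMSO.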
The EC50 is the concentration giving half of the maximal effect. As for `Cc1sc2c(c1C)C(c1ccc(Cl)cc1)=N[C@@H](CC(=O)NC1CCN(CC#CC#CC3CCN(CCOCCOCCOCCNC(=O)CCNC(=O)c4nc(NC(=O)CCNC(=O)c5cc(NC(=O)c6nc(NC(=O)CCNC(=O)c7cc(NC(=O)c8nccn8C)cn7C)cn6C)cn5C)cn4C)CC3)CC1)c1nnc(C)n1-2` [Compound 156], the EC50 was less than 100 nM.
Turning to `Cc1cc(F)cc(C)c1Oc1ccc(C(C)(C)O)cc1-c1cn(C)c(=O)c2[nH]c(C(=O)Nc3ccc(OCCOCCOCCOCCOCCOCCOCCOCCOCCNC(=O)CCNC(=O)c4nc(NC(=O)CCNC(=O)c5cc(NC(=O)c6nc(NC(=O)CCN)cn6C)cn5C)cn4C)cc3)cc12` [Compound 199, 4-(3-aminopropanamido)-N-(5-{[2-({2-[(2-{[26-(4-{4-[2-(4-fluoro-2,6-dimethylphenoxy)-5-(2-hydroxypropan-2-yl)phenyl]-6-methyl-7-oxo-1H-pyrrolo[2,3-c]pyridine-2-amido}phenoxy)-3,6,9,12,15,18,21,24-octaoxahexacosan-1-yl]carbamoyl}ethyl)carbamoyl]-1-methylimidazol-4-yl}carbamoyl)ethyl]carbamoyl}-1-methylpyrrol-3-yl)-1-methylimidazole-2-carboxamide], the half-maximal effective concentration (EC50) was more than 500 nM.
The result for `Cc1sc2c(c1C)C(c1ccc(Cl)cc1)=N[C@@H](CC(=O)NC1CCN(CCOCCOCCOCCOCCN3CCN(CCOCCOCCNC(=O)CCNC(=O)c4nc(NC(=O)CCNC(=O)c5cc(NC(=O)c6nc(NC(=O)CCNC(=O)c7cc(NC(=O)c8nccn8C)cn7C)cn6C)cn5C)cn4C)CC3)CC1)c1nnc(C)n1-2` [Compound 108] reads less than 100 nM; that for `COc1ccc2c(c1)C(c1ccc(Cl)cc1)=N[C@@H](CC(=O)NC1CCN(CCOCCOCCOCCN3CCN(CC4CCN(CCOCCNC(=O)CCNC(=O)c5nc(NC(=O)CCNC(=O)c6cc(NC(=O)c7nc(NC(=O)CCNC(=O)c8cc(NC(=O)c9nccn9C)cn8C)cn7C)cn6C)cn5C)CC4)CC3)CC1)c1nnc(C)n1-2` [Compound 34], more than 500 nM; that for `Cc1sc2c(c1C)C(c1ccc(Cl)cc1)=N[C@@H](CC(=O)N1CCC(C#CC#CCNCCOCCOCCOCCOCCOCCNC(=O)CCNC(=O)c3nc(NC(=O)CCNC(=O)c4cc(NC(=O)c5nc(NC(=O)CCNC(=O)c6cc(NC(=O)c7nccn7C)cn6C)cn5C)cn4C)cn3C)CC1)c1nnc(C)n1-2` [Compound 40], less than 100 nM.
In the case of `Cc1c(C(=O)N2CCC(C#CC#CC3CCN(CCOCCOCCOCCOCCNC(=O)CCNC(=O)c4nc(NC(=O)CCNC(=O)c5cc(NC(=O)c6nc(NC(=O)CCNC(=O)c7cc(NC(=O)c8nccn8C)cn7C)cn6C)cn5C)cn4C)CC3)CC2)sc2c1C(c1ccc(Cl)cc1)=N[C@@H](CC(=O)NCCN1CCN(C)CC1)c1nnc(C)n1-2` [Compound 134] it was 100 to 500 nM; in that of `COCCOCCOCCOCCOCCOCCOCCOCCOCCOCCOCCNC(=O)c1sc2c(c1C)C(c1ccc(Cl)cc1)=N[C@@H](CC(=O)N1CCC(C#CC#CC3CCN(CCOCCOCCOCCOCCNC(=O)CCNC(=O)c4nc(NC(=O)CCNC(=O)c5cc(NC(=O)c6nc(NC(=O)CCNC(=O)c7cc(NC(=O)c8nccn8C)cn7C)cn6C)cn5C)cn4C)CC3)CC1)c1nnc(C)n1-2` [Compound 133], 100 to 500 nM.
In the case of `COc1ccc2c(c1)C(c1ccc(Cl)cc1)=N[C@@H](CC(=O)N1CCC(C#CC#CCNCCOCCOCCOCCOCCOCCNC(=O)CCNC(=O)c3nc(NC(=O)CCNC(=O)c4cc(NC(=O)c5nc(NC(=O)CCNC(=O)c6cc(NC(=O)c7nccn7C)cn6C)cn5C)cn4C)cn3C)CC1)c1nnc(C)n1-2` [Compound 41] it was less than 100 nM; in that of `Cc1sc2c(c1C)C(c1ccc(Cl)cc1)=N[C@@H](CC(=O)N1CCN(CC3CCN(CCOCCOCCOCCOCCN4CCC(CN5CCN(C(=O)CCNC(=O)c6nc(NC(=O)CCNC(=O)c7cc(NC(=O)c8nc(NC(=O)CCNC(=O)c9cc(NC(=O)c%10nccn%10C)cn9C)cn8C)cn7C)cn6C)CC5)CC4)CC3)CC1)c1nnc(C)n1-2` [Compound 19], more than 500 nM; in that of `Cc1sc2c(c1C)C(c1ccc(Cl)cc1)=N[C@H](CC(=O)NC1CCN(CCOCCOCCOCCOCCOCCC(=O)NCCCN(C)CCCNC(=O)CCNC(=O)c3nc(NC(=O)CCNC(=O)c4cc(NC(=O)c5nc(NC(=O)CCNC(=O)c6cc(NC(=O)c7nccn7C)cn6C)cn5C)cn4C)cn3C)CC1)c1nnc(C)n1-2` [Compound 39], more than 500 nM.
With `Cc1cc(F)cc(C)c1Oc1ccc(C(C)(C)O)cc1-c1cn(C)c(=O)c2[nH]c(C(=O)NC3CCN(CC#CC#CC4CCN(CCOCCOCCNC(=O)CCNC(=O)c5nc(NC(=O)CCNC(=O)c6cc(NC(=O)c7nc(NC(=O)CCNC(=O)c8cc(NC(=O)c9nccn9C)cn8C)cn7C)cn6C)cn5C)CC4)CC3)cc12` [Compound 176], the EC50 was less than 100 nM.
The result for `Cc1sc2c(c1C)C(c1ccc(Cl)cc1)=N[C@@H](CC(=O)N1CCC(N3CCN(CCOCCOCCOCCOCCC(=O)NCCCN(CCCNC(=O)CCNC(=O)c4nc(NC(=O)CCNC(=O)c5cc(NC(=O)c6nc(NC(=O)CCNC(=O)c7cc(NC(=O)c8nccn8C)cn7C)cn6C)cn5C)cn4C)CC(F)(F)F)CC3)CC1)c1nnc(C)n1-2` [Compound 69] reads less than 100 nM.
`Cc1sc2c(c1C)C(c1ccc(Cl)cc1)=N[C@@H](CC(=O)NC1CCN(C(C)(C)C#CC#CC3CCN(CCOCCOCCOCCOCCOCCNC(=O)CCNC(=O)c4nc(NC(=O)CCNC(=O)c5cc(NC(=O)c6nc(NC(=O)CCNC(=O)c7cc(NC(=O)c8nccn8C)cn7C)cn6C)cn5C)cn4C)CC3)CC1)c1nnc(C)n1-2` [Compound 151]: the concentration for a half-maximal effect (EC50) is less than 100 nM.
On to `Cc1sc2c(c1C)C(c1ccc(Cl)cc1)=N[C@@H](CC(=O)NC1CCN(CCOCCOCCOCCOCCOCCN3CCN(CCCCCNC(=O)CCNC(=O)c4nc(NC(=O)CCNC(=O)c5cc(NC(=O)c6nc(NC(=O)CCNC(=O)c7cc(NC(=O)c8nccn8C)cn7C)cn6C)cn5C)cn4C)CC3)CC1)c1nnc(C)n1-2` [Compound 109], for which the EC50 fell in the range of 100 to 500 nM.
As for `Cc1sc2c(c1C)C(c1ccc(Cl)cc1)=N[C@@H](CC(=O)NC1CCN(CC#CC#CC3CCN(CCOCCOCCNC(=O)CCNC(=O)c4nc(NC(=O)CCNC(=O)c5cc(NC(=O)c6nc(NC(=O)CCNC(=O)c7cc(NC(=O)c8nccn8C)cn7C)cn6C)cn5C)cn4C)CC3)CC1)c1nnc(C)n1-2` [Compound 155], the concentration giving a half-maximal response (EC50) is less than 100 nM.
As for `COc1nnc2ccc(N3CCC(c4ccc(OCCN5[C@H](C)CN(C(=O)COCCOCCOCCOCCOCCOCCOCCOCCNC(=O)CCNC(=O)c6nc(NC(=O)CCNC(=O)c7cc(NC(=O)c8nc(NC(=O)CCNC(=O)c9cc(NC(=O)c%10nccn%10C)cn9C)cn8C)cn7C)cn6C)C[C@@H]5C)cc4)CC3)nn12` [Compound 115], the concentration giving a half-maximal response (EC50) is more than 500 nM.
The result for `Cc1sc2c(c1C)C(c1ccc(Cl)cc1)=N[C@@H](CC(=O)NCCCCCN(CCCCCNC(=O)C[C@@H]1N=C(c3ccc(Cl)cc3)c3c(sc(C)c3C)-n3c(C)nnc31)CCOCCOCCOCCOCCOCCNC(=O)CCNC(=O)c1nc(NC(=O)CCNC(=O)c3cc(NC(=O)c4nc(NC(=O)CCNC(=O)c5cc(NC(=O)c6nccn6C)cn5C)cn4C)cn3C)cn1C)c1nnc(C)n1-2` [Compound 113] reads less than 100 nM.
In the case of `Cc1sc2c(c1C)C(c1ccc(Cl)cc1)=N[C@@H](CC(=O)N1CC(C#CC#CC3CN(CCOCCOCCOCCOCCNC(=O)CCNC(=O)c4nc(NC(=O)CCNC(=O)c5cc(NC(=O)c6nc(NC(=O)CCNC(=O)c7cc(NC(=O)c8nccn8C)cn7C)cn6C)cn5C)cn4C)C3)C1)c1nnc(C)n1-2` [Compound 126] it was less than 100 nM.
In the case of `Cc1noc2c1-c1ccccc1C(c1ccc(Cl)cc1)=N[C@H]2CC(=O)Nc1ccc(C#CC#CCNC(=O)COCCOCCOCCOCCOCCNC(=O)CCNC(=O)c2nc(NC(=O)CCNC(=O)c3cc(NC(=O)c4nc(NC(=O)CCNC(=O)c5cc(NC(=O)c6nccn6C)cn5C)cn4C)cn3C)cn2C)cc1` [Compound 84] it was more than 500 nM; in that of `Cc1sc2c(c1C)C(c1ccc(Cl)cc1)=N[C@@H](CC(=O)Nc1ccc(OCCOCCOCCOCCOCCOCCOCCOCCOCCNC(=O)CCNC(=O)CCNC(=O)c3nc(NC(=O)CCNC(=O)c4cc(NC(=O)c5nc(NC(=O)CCNC(=O)c6cc(NC(=O)c7nccn7C)cn6C)cn5C)cn4C)cn3C)cc1)c1nnc(C)n1-2` [Compound 229], less than 100 nM; in that of `Cc1sc2c(c1C)C(c1ccc(Cl)cc1)=N[C@@H](CC(=O)N1CCN(CC3CCN(CCOCCOCCOCCN4CCC(CN5CCN(C(=O)CCNC(=O)c6nc(NC(=O)CCNC(=O)c7cc(NC(=O)c8nc(NC(=O)CCNC(=O)c9cc(NC(=O)c%10nccn%10C)cn9C)cn8C)cn7C)cn6C)CC5)CC4)CC3)CC1)c1nnc(C)n1-2` [Compound 20], more than 500 nM.
For the molecule `Cc1sc2c(c1C)C(c1ccc(Cl)cc1)=N[C@@H](CC(=O)N[C@H]1CC[C@H](N(C)CCOCCOCCOCCOCCOCCOCCOCCOCCNC(=O)CCNC(=O)c3nc(NC(=O)CCNC(=O)c4cc(NC(=O)c5nc(NC(=O)CCNC(=O)c6cc(NC(=O)c7nccn7C)cn6C)cn5C)cn4C)cn3C)CC1)c1nnc(C)n1-2` [Compound 22], the concentration giving a half-maximal response (EC50) is less than 100 nM.
The result for `Cc1sc2c(c1C)C(c1ccc(Cl)cc1)=N[C@@H](CC(=O)NC1CCN(CCOCCOCCOCCN3CCN(CCN4CCN(CCOCCNC(=O)CCNC(=O)c5nc(NC(=O)CCNC(=O)c6cc(NC(=O)c7nc(NC(=O)CCNC(=O)c8cc(NC(=O)c9nccn9C)cn8C)cn7C)cn6C)cn5C)CC4)CC3)CC1)c1nnc(C)n1-2` [Compound 29] reads more than 500 nM; that for `Cc1sc2c(c1C)C(c1ccc(Cl)cc1)=N[C@@H](CC(=O)N1CCC(C#CC#CC3CCN(CCOCCNC(=O)CCNC(=O)c4nc(NC(=O)CCNC(=O)c5cc(NC(=O)c6nc(NC(=O)CCNC(=O)c7cc(NC(=O)c8nccn8C)cn7C)cn6C)cn5C)cn4C)CC3)CC1)c1nnc(C)n1-2` [Compound 160], less than 100 nM; that for `Cc1sc2c(c1C)C(c1ccc(NC(=O)CCCCCCCCCCCCCCCNCCc3c[nH]c4ccccc34)cc1)=N[C@@H](CC(=O)Nc1ccc(OCCOCCOCCOCCOCCOCCOCCOCCOCCNC(=O)CCNC(=O)c3nc(NC(=O)CCNC(=O)c4cc(NC(=O)c5nc(NC(=O)CCNC(=O)c6cc(NC(=O)c7nccn7C)cn6C)cn5C)cn4C)cn3C)cc1)c1nnc(C)n1-2` [Compound 200], more than 500 nM.
